Measurements taken from US11028079B2 (ConverGene LLC, priority 2015, dated 2021).

What follows are molecules tested against T1, BRD4 bromodomains (Homo sapiens, UniProt O60885) (assay: BROMOscan bromodomain competition binding assay (DiscoveRx)). Conditions: Kd from 11 compound concentrations ranging from 0 to 10 μM, read-out: BROMOscan Relative Activity.
T1 construct: fused on or other part: T7 phage capsid protein (phage-display fusion; the phage DNA is read out by qPCR)
In short: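 Compounds in 0.1% DMSO/0.9% MEG competed with a solid-phase acetylated peptide for T7 phage-fused BRD4 bromodomains, with the retained bromodomain measured by qPCR.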
`Cc1noc(C)c1-c1ccc2nc(N3CCN(C(=O)c4ccncc4)CC3)nc(NCc3cccc(Cl)c3)c2c1` [Example 29, (4-(4-((3-chlorobenzyl)amino)-6-(3,5-dimethylisoxazol-4-yl)quinazolin-2-yl)piperazin-1-yl)(pyridin-4-yl)methanone] gave a Kd of under 500 nM.
In the case of `Cc1noc(C)c1-c1ccc2nc(N3CCN(CCN(C)C)CC3)nc(NCc3ccco3)c2c1` [Example 79, 2-(4-(2-(dimethylamino)ethyl)piperazin-1-yl)-6-(3,5-dimethylisoxazol-4-yl)-N-(furan-2-ylmethyl)quinazolin-4-amine], the Kd is reported as 500 to 5000 nM.
Work on `Cc1noc(C)c1-c1ccc2nc(N3CCN(CCO)CC3)nc(NCc3cccc(Cl)c3)c2c1` [Example 20, 2-(4-(4-((3-chlorobenzyl)amino)-6-(3,5-dimethylisoxazol-4-yl)quinazolin-2-yl)piperazin-1-yl)ethanol] yielded a Kd of under 500 nM.
`Cc1noc(C)c1-c1ccc2nc(C(=O)Nc3ccncc3F)nc(NCc3cccc(Cl)c3)c2c1` [Example 223, 4-((3-chlorobenzyl)amino)-6-(3,5-dimethylisoxazol-4-yl)-N-(3-fluoropyridin-4-yl)quinazoline-2-carboxamide] gave a Kd of over 5000 nM.
Molecule `Cc1noc(C)c1-c1cc(NCc2cccc(Cl)c2)c2cc(Br)ccc2n1` [Example 15, 6-bromo-N-(3-chlorobenzyl)-2-(3,5-dimethylisoxazol-4-yl)quinolin-4-amine] has a Kd of over 5000 nM.
`CN(C)C(=O)Cn1cc(-c2nc(NCc3cncc(Cl)c3)c3cc(-c4ccc(=O)n(C)c4)ccc3n2)cn1` [Example 146, 2-(4-(4-(((5-chloropyridin-3-yl)methyl)amino)-6-(1-methyl-6-oxo-1,6-dihydropyridin-3-yl)quinazolin-2-yl)-1H-pyrazol-1-yl)-N,N-dimethylacetamide] showed a Kd of under 500 nM.
With `Cc1noc(C)c1-c1ccc2nc(C(=O)NCc3cncc(Cl)c3)nc(NCc3cccc(Cl)c3)c2c1` [Example 191, 4-((3-chlorobenzyl)amino)-N-((5-chloropyridin-3-yl)methyl)-6-(3,5-dimethylisoxazol-4-yl)quinazoline-2-carboxamide] the Kd was under 500 nM.
For `Cc1noc(C)c1-c1ccc2nc(-c3cnn(C4CNC4)c3)nc(N3CCOC[C@@H]3c3ccccc3)c2c1` [Example 326, (S)-4-(2-(1-(azetidin-3-yl)-1H-pyrazol-4-yl)-6-(3,5-dimethylisoxazol-4-yl)quinazolin-4-yl)-3-phenylmorpholine], the Kd was under 500 nM.
In the case of `Cc1cncc(CNc2nc(N3CCN(CCN(C)C)CC3)nc3ccc(-c4c(C)noc4C)cc23)c1` [Example 115, 2-(4-(2-(dimethylamino)ethyl)piperazin-1-yl)-6-(3,5-dimethylisoxazol-4-yl)-N-((5-methylpyridin-3-yl)methyl)quinazolin-4-amine], the Kd is reported as under 500 nM.
`Cc1noc(C)c1-c1ccc2nc(N3CCN(CCN(C)C)CC3)nc(NCc3ccccc3F)c2c1` [Example 76, 2-(4-(2-(dimethylamino)ethyl)piperazin-1-yl)-6-(3,5-dimethylisoxazol-4-yl)-N-(2-fluorobenzyl)quinazolin-4-amine] gave a Kd of under 500 nM.
Molecule `Cc1cc(-c2ccc3nc(N4CCN(CCN(C)C)CC4)nc(NCc4cccc(Cl)c4)c3c2)cnc1O` [Example 91, 5-(4-((3-chlorobenzyl)amino)-2-(4-(2-(dimethylamino)ethyl)piperazin-1-yl)quinazolin-6-yl)-3-methylpyridin-2-ol] has a Kd of under 500 nM.
In the case of `Cc1noc(C)c1-c1ccc2nc(C(=O)NC3CCN(C)CC3)nc(NCc3cccc(Cl)c3)c2c1` [Example 172, 4-((3-chlorobenzyl)amino)-6-(3,5-dimethylisoxazol-4-yl)-N-(1-methylpiperidin-4-yl)quinazoline-2-carboxamide], the Kd is reported as under 500 nM.
`Cn1cc(-c2ccc3nc(-c4cnn(CC(C)(C)O)c4)nc(N4CCOC[C@@H]4c4ccccc4)c3c2)ccc1=O` [Example 292, (S)-5-(2-(1-(2-hydroxy-2-methylpropyl)-1H-pyrazol-4-yl)-4-(3-phenylmorpholino)quinazolin-6-yl)-1-methylpyridin-2(1H)-one] was tested, and the Kd was under 500 nM.
Work on `Cc1noc(C)c1-c1ccc2nc(N3CCN(CCN(C)C)CC3)nc(N(C)Cc3cccc(Cl)c3)c2c1` [Example 85, N-(3-chlorobenzyl)-2-(4-(2-(dimethylamino)ethyl)piperazin-1-yl)-6-(3,5-dimethylisoxazol-4-yl)-N-methylquinazolin-4-amine] yielded a Kd of under 500 nM.
With `Cc1noc(C)c1-c1ccc2nc(N3CCN(CCN(C)C)CC3)nc(NC3(c4cccc(Cl)c4)CC3)c2c1` [Example 170, N-(1-(3-chlorophenyl)cyclopropyl)-2-(4-(2-(dimethylamino)ethyl)piperazin-1-yl)-6-(3,5-dimethylisoxazol-4-yl)quinazolin-4-amine] the Kd was under 500 nM.
`Cn1cc(-c2ccc3nc(-c4cnn(CC(C)(C)O)c4)nc(NCc4cncc(Cl)c4)c3c2)ccc1=O` [Example 148, 5-(4-(((5-chloropyridin-3-yl)methyl)amino)-2-(1-(2-hydroxy-2-methylpropyl)-1H-pyrazol-4-yl)quinazolin-6-yl)-1-methylpyridin-2(1H)-one] showed a Kd of 500 to 5000 nM.
`CNC(=O)Cn1cc(-c2nc(N3CCOC[C@@H]3c3ccccc3)c3cc(-c4c(C)noc4C)ccc3n2)cn1` [Example 272, (S)-2-(4-(6-(3,5-dimethylisoxazol-4-yl)-4-(3-phenylmorpholino)quinazolin-2-yl)-1H-pyrazol-1-yl)-N-methylacetamide] gave a Kd of under 500 nM.
`Cc1noc(C)c1-c1ccc2nc(C(=O)NCc3nccn3C)nc(NCc3cccc(Cl)c3)c2c1` [Example 251, 4-((3-chlorobenzyl)amino)-6-(3,5-dimethylisoxazol-4-yl)-N-((1-methyl-1H-imidazol-2-yl)methyl)quinazoline-2-carboxamide] gave a Kd of under 500 nM.
Molecule `Cc1noc(C)c1-c1ccc2nc(N3CCN(CC(C)(C)O)CC3)nc(N3CCOC[C@@H]3c3ccccc3)c2c1` [Example 295, (S)-1-(4-(6-(3,5-dimethylisoxazol-4-yl)-4-(3-phenylmorpholino)quinazolin-2-yl)piperazin-1-yl)-2-methylpropan-2-ol] has a Kd of under 500 nM.
Work on `Cc1noc(C)c1-c1ccc2nc(C(=O)N[C@H]3CC[C@H](O)CC3)nc(NCc3cccc(Cl)c3)c2c1` [Example 250, 4-((3-chlorobenzyl)amino)-6-(3,5-dimethylisoxazol-4-yl)-N-((trans)-4-hydroxycyclohexyl)quinazoline-2-carboxamide] yielded a Kd of under 500 nM.
`CN(C)CCN1CCN(c2nc(NCc3cncc(Cl)c3)c3cc(-c4ccc(=O)n(C)c4)ccc3n2)CC1` [Example 124, 5-(4-(((5-chloropyridin-3-yl)methyl)amino)-2-(4-(2-(dimethylamino)ethyl)piperazin-1-yl)quinazolin-6-yl)-1-methylpyridin-2(1H)-one] showed a Kd of under 500 nM.
`Cc1noc(C)c1-c1ccc2nc(N3CCN(S(C)(=O)=O)CC3)nc(N3CCOC[C@@H]3c3ccccc3)c2c1` [Example 269, (S)-4-(6-(3,5-dimethylisoxazol-4-yl)-2-(4-(methylsulfonyl)piperazin-1-yl)quinazolin-4-yl)-3-phenylmorpholine] gave a Kd of under 500 nM.
With `Cc1noc(C)c1-c1ccc2nc(N3CCN(C(=O)C4CC4)CC3)nc(NCc3cccc(Cl)c3)c2c1` [Example 17, (4-(4-((3-chlorobenzyl)amino)-6-(3,5-dimethylisoxazol-4-yl)quinazolin-2-yl)piperazin-1-yl)(cyclopropyl)methanone] the Kd was under 500 nM.
